Measured values from patent US6284918A, “Selective inhibitors of prostaglandin endoperoxide synthase-2” (priority 1999, dated 2001).
Like-named read-outs stand apart in the source and are kept apart here.

Columns and labels:
[1] = target: T1, human PGHS-2 (Homo sapiens, UniProt P35354); experiment: Time- and concentration-dependent inhibition of human PGHS-2, TLC assay (3 h preincubation); assay type: biochemical; details: for IC50: PGHS-2 88 nM; for inhibition of PGHS-2 (in words): table footnotes; for IC50 (PGHS-1)/IC50 (PGHS-2): selectivity ratio, 180 min
T1 construct: made in house; host or cells: insect cells (baculovirus vectors)
T1 sequence (P35354 18-604): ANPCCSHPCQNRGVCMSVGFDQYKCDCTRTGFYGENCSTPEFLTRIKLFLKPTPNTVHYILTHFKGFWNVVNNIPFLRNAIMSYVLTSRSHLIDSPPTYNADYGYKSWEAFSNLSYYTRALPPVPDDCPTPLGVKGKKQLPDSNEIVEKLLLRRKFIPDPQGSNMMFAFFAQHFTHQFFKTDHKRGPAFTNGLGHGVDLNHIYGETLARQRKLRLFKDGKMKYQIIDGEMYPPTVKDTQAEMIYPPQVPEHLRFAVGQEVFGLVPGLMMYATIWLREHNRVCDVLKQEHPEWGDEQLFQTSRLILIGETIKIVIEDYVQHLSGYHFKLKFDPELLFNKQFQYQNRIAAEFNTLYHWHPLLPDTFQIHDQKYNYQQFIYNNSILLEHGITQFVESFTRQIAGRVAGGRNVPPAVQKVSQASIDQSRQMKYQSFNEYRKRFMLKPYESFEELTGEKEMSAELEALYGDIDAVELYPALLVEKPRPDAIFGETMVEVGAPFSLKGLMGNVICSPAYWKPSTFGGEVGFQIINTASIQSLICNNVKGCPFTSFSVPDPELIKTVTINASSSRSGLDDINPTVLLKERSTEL
Protocol: (§1) Cyclooxygenase activity of ovine PGHS-1 (22 nM) or human PGHS-2 (88 nM) was assayed by TLC. Reaction mixtures of 200 μL consisted of hematin-reconstituted protein in 100 mM Tris-HCl, pH 8.0, 500 μM phenol, and [1-^14 C]arachidonic acid (50 μM, 57 mCi/mmol). For the time-dependent inhibition assay, hematin-reconstituted PGHS-1 (22 nM) or PGHS-2 (88 nM) was preincubated at room temperature for 2 hours and then at 0° C. for 1 hour with varying concentrations of inhibitor in DMSO followed by the addition of [1-^14 C]arachidonic acid (50 μM) for 30 seconds at 37° C. Reactions were terminated by solvent extraction in diethyl ether/methanol/1 M citrate, pH 4.0 (30:4:1). The organic phase was spotted on a TLC plate (Amersham Corp.). The plate was developed with ethyl acetate/methylene chloride/glacial acetic acid (75:25:1) at 4° C. Radiolabeled products were quantitated with a radioactivity scanner (Bioscan, Inc., Washington, D.C.).
(§2) conducted at room temperature for 3 hours. The cyclooxygenase reaction was
(§3) initiated by the addition of 14C-arachidonic acid (50 μM) to the
(§4) incubation mixtures at 37 C for 30 seconds.
(§5) conducted at room temperature for 3 hours. The cyclooygenase reaction was
(§6) initiated by the addition of ^14 C-arachidonic acid ([…]) to the
(§7) incubation mixtures at 37° C. for 30 sec.

[2] = target: T2, ovine PGHS-1 (Ovis aries, UniProt P05979); experiment: Time- and concentration-dependent inhibition of ovine PGHS-1, TLC assay (3 h preincubation); assay type: biochemical; details: for inhibition of PGHS-1 (in words): table footnotes
T2 construct: PGHS-1 was purified from sheep seminal vesicles as described earlier; tissue Oxford Biomedical Research, Inc. (supplier of the sheep seminal vesicles); host or cells: sheep seminal vesicles
T2 sequence (P05979 25-600): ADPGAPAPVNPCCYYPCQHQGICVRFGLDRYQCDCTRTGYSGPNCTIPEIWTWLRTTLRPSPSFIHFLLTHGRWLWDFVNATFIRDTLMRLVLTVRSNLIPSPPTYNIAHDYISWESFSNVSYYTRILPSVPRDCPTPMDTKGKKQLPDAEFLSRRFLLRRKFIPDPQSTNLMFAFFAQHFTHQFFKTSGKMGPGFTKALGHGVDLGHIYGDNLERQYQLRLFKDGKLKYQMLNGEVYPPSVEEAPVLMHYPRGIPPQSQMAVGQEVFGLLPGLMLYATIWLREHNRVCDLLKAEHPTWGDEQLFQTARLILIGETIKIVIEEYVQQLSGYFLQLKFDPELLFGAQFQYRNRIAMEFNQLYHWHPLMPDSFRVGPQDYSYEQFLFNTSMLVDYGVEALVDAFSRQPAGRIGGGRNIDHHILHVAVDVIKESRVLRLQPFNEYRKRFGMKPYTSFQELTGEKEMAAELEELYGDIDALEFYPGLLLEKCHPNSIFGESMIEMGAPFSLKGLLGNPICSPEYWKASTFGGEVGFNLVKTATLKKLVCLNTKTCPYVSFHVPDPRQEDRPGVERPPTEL
Protocol: as §1, §2, §3, §4, §5, §6, §7

[3] = target: T3, oCOX-1 (Ovis aries, UniProt P05979); experiment: Time- and concentration-dependent inhibition of oCOX-1 (1 h incubation); assay type: biochemical, ovine
T3 construct: PGHS-1 was purified from sheep seminal vesicles as described earlier; tissue Oxford Biomedical Research, Inc. (supplier of the sheep seminal vesicles); host or cells: sheep seminal vesicles
T3 sequence (P05979 25-600): T2 sequence (P05979 25-600)
Protocol: (§8) ^a IC50 values were determined by incubating several inhibitor
(§9) concentrations in DMSO with purified hCOX-2 or oCOX-1 for 1 h at rt;
(§10) assays were run in duplicate. IC50 values are average of duplicate
(§11) determinations for each test compounds.

[4] = target: T4, hCOX-2 (Homo sapiens, UniProt P35354); experiment: Time- and concentration-dependent inhibition of hCOX-2 (1 h incubation); assay type: biochemical
T4 construct: made in house; host or cells: insect cells (baculovirus vectors)
T4 sequence (P35354 18-604): T1 sequence (P35354 18-604)
Protocol: as §8, §9, §10, §11

[5] = Table 1, 22 nM enzyme, 3 h at room temperature, 50 μM 14C-arachidonic acid
[6] = Table 1, 3 h at room temperature, 50 μM 14C-arachidonic acid
[7] = Table 2, PGHS-1 22 nM, 3 h at room temperature
[8] = Table 2, 3 h at room temperature
[9] = Table 3, 1 h at rt, average of duplicates, read-out: IC50 oCOX-1
[10] = Table 3, 1 h at rt, average of duplicates, read-out: IC50 hCOX-2

Structure (SMILES)	IC50 [2, 7]	IC50 [1, 8]	IC50 (PGHS-1)/IC50 (PGHS-2) ([1]; Table 2)	also measured
CSc1ccccc1OC(=O)C(F)(F)F [Compound 6]				inhibition at 100 µM ([1]; FIG. 8, 0.1 mM): ~35%
CSc1ccccc1OC(=O)CCl [Compound 7, 2-(α-chloroacetoxy)thioanisole]				IC50 [2, 5]: 0.39 mM; IC50 [1, 6]: 360 µM
CSc1ccccc1OC(=O)CBr [Compound 8, 2-(α-bromoacetoxy)thioanisole]				IC50 [2, 5]: 0.32 mM; IC50 [1, 6]: 510 µM
CCCCCCCSc1ccccc1O [Compound 38, 2-Hydroxyphenylheptyl sulfide]				inhibition of PGHS-1 (in words) [2]: did not inhibit; inhibition of cyclooxygenase activity of human holoPGHS-2 (in words) ([1]; FIG. 9, 3 h at room temperature): very little effect; inhibition of PGHS-2 (in words) [1]: did not inhibit
CCSc1ccccc1OC(C)=O [Compound 49, 2-Acetoxyphenylethyl sulfide]	0.375 mM	200 µM	1.8	
CCCSc1ccccc1OC(C)=O [Compound 50, 2-Acetoxyphenylpropyl sulfide]	0.066 mM	66 µM	1.0	
CC(=O)Oc1ccccc1SCC(C)C [Compound 51, 2-Acetoxyphenyl-2-methylpropyl sulfide]	0.034 mM	40 µM	1.2	
CCCCCCSc1ccccc1OC(C)=O [Compound 53, 2-Acetoxyphenylhexyl sulfide]	0.008 mM	3.5 µM	2.3	
CCCCCCCCSc1ccccc1OC(C)=O [Compound 55, 2-Acetoxyphenyloctyl sulfide]	> 0.033 mM	> 33 µM		
CCCCCCCCCSc1ccccc1OC(C)=O [Compound 56, 2-Acetoxyphenylnonyl sulfide]	> 0.033 mM	> 33 µM		
CC(=O)Oc1ccccc1SC1CCCCC1 [Compound 57, 2-Acetoxyphenylcyclohexyl sulfide]	> 0.033 mM	> 33 µM		
CC(=O)Oc1ccccc1SC1CCCCCC1 [Compound 58, 2-Acetoxyphenylcycloheptyl sulfide]	> 0.033 mM	> 33 µM		
CC(=O)Oc1ccccc1SCCc1ccccc1 [Compound 60, 2-Acetoxyphenyl-2-phenylethyl sulfide]				IC50 [1, 6]: 100 µM
CC(=O)Oc1ccccc1SCCCCCCCC(=O)O [Compound 63, 2-Acetoxyphenyl-8-carboxyheptyl sulfide]				IC50 ([2]; Table 1, cell printed in mM): > 1 mM
CCCCOCCSc1ccccc1OC(C)=O [Compound 67, 2-Acetoxyphenyl-2-butoxyethyl sulfide]	0.022 mM	7 µM	3	inhibition of cyclooxygenase activity of human holoPGHS-2 (in words) ([1]; FIG. 11, 8 μM (compound 67)): greatly inhibited
CCOCCCSc1ccccc1OC(C)=O [Compound 71, 2-Acetoxyphenyl-3-ethoxypropyl sulfide]	> 0.033 mM	> 33 µM		inhibition of cyclooxygenase activity of human holoPGHS-2 (in words) ([1]; FIG. 11, 8 μM (compound 67)): very little effect
CCCC/C=C/CSc1ccccc1OC(C)=O [Compound 75, 2-Acetoxyphenyl-trans-hept-2-enyl sulfide]	> 0.0165 mM			inhibition at 16.5 µM ([2]; at 16.5 μM): ~25%
CCCCC#CCSc1ccccc1O [Compound 82, 2-Hydroxyphenyl-hept-2-ynyl sulfide]				inhibition of PGHS-1 (in words) [2]: did not inhibit; inhibition of cyclooxygenase activity of human holoPGHS-2 (in words) ([1]; FIGS. 12 and 13, 1-16 μM): very little effect; inhibition of PGHS-2 (in words) [1]: did not inhibit
CCCC#CCSc1ccccc1OC(C)=O [Compound 88, 2-Acetoxyphenylhex-2-ynyl sulfide]	0.014 mM	3 µM	4.6	inhibition of cyclooxygenase activity of human holoPGHS-2 (in words) ([1]; FIGS. 12 and 13, 1-16 μM): greatly inhibited
CCC#CCSc1ccccc1OC(C)=O [Compound 89, 2-Acetoxyphenylpent-2-ynyl sulfide]	0.02 mM	5 µM	4	
CC#CCSc1ccccc1OC(C)=O [Compound 90, 2-Acetoxyphenyl-but-2-ynyl sulfide]	> 0.035 mM		> 2	
C#CCSc1ccccc1OC(C)=O [Compound 91, 2-Acetoxyphenyl-prop-2-ynyl sulfide]	0.04 mM	25 µM	1.6	
CCCCCCCS(=O)(=O)c1ccccc1OC(C)=O [Compound 93, 2-Acetoxyphenylheptyl sulfone]				inhibition of PGHS-1 (in words) [2]: very poor inhibitor; inhibition of PGHS-2 (in words) [1]: very poor inhibitor
CCCCCC#CCSc1ccccc1OC(C)=O [Compound 109, 2-Acetoxyphenyloct-2-ynyl sulfide]				IC50 [3, 9]: 33 µM; IC50 [4, 10]: 7 µM
CCCCCCC#CCSc1ccccc1OC(C)=O [Compound 110, 2-Acetoxyphenylnon-2-ynyl sulfide]				IC50 [3, 9]: 50 µM; IC50 [4, 10]: 12.5 µM
CCCCCCCC#CCSc1ccccc1OC(C)=O [Compound 111, 2-Acetoxyphenyldec-2-ynyl sulfide]				IC50 [3, 9]: > 50 µM; IC50 [4, 10]: 16 µM
CCCC#CCCSc1ccccc1OC(C)=O [Compound 115, 2-Acetoxyephenylhept-3-ynyl sulfide]				IC50 [3, 9]: 18 µM; IC50 [4, 10]: 6.5 µM
CCCCC#CCSc1ccccc1OC(N)=O [Compound 122, 2-Carbamoyloxyphenylhept-2-ynyl sulfide]				IC50 [3]: > 40 µM; IC50 [4]: > 40 µM
CCCCC#CCSc1ccccc1OC(=O)CBr [Compound 123, 2-(α-bromoacetoxy)phenylhept-2-ynyl sulfide]				IC50 [3, 9]: 20 µM; IC50 [4, 10]: 26 µM
CCCCC#CCSc1ccccc1OS(C)(=O)=O [Compound 124, 2-Methylsulfonyloxyphenylhept-2-ynyl sulfide]				IC50 [3, 9]: > 40 µM; IC50 [4, 10]: > 40 µM
